Results on 2 molecules are retold here after patent US11618894B2, “Bacteria engineered to reduce hyperphenylalaninemia” (Synlogic Operating Company, Inc., priority 2015, dated 2023).

Series [1] is described as follows: Kinetics of phenylalanine in the enterocirculation model. The following applies: subcutaneous 0.1 mg/g phenylalanine. Format: in vivo, PKU (enu2) mice. As to the method: To characterize the phenylalanine enterocirculation model, first the kinetics of serum levels of phenylalanine post phenylalanine challenger were assessed.
On day −6, PKU (enu2) mice were placed on phenylalanine-free chow and water (+)Phe (0.5 g/L)
On day 1, animals were bled to get T=0 (pre Phe challenge), and animals were randomized into two groups based on phenylalanine levels measured. The first treatment group (n=15) included mice for use for the 2, 6 and 24 hour post phenylalanine challenge time points; Group 2 (n=15) included mice for the 4 and 8 hour post phenylalanine challenge time points.
Mice were pre-weighed to obtain the average weight for each group. Phenylalanine was dosed at a concentration equal to average group weight. Animals were dosed subcutaneously with 0.1 mg/g phenylalanine. In Group 1, animals were bled at 2, 6 and 24 h post Phe challenge. In Group 2, animals were bled at 4 and 8 h post Phe challenge. Whisker plots in FIG. 38A and FIG. 38B show distribution of mouse blood phenylalanine levels (both overall phenylalanine levels (FIG. 38A) and change in phenylalanine levels from T0 (FIG. 38B). Phenylalanine levels were stably elevated over at least a 6 hour period. […]
On day −6, PKU mice were placed on phenylalanine-free chow and water (+)Phe (0.5 g/L). […] Animals were randomized into three treatment groups based on phenylalanine levels measured. […]

Series [2] in a line: Oral gavage of TCA in PKU mice, recovery of TCA and hippuric acid in urine, feces and blood.
Description: Urine, feces, and blood were collected at 4 hours post gavage and analyzed for TCA and its major breakdown product, hippuric acid.
Animals were transferred to metabolic cages (3 mice per cage, 2 cages per group) and urine samples were collected at 1, 2, 3, 4, 5, 6 hours post TCA dose.
Series [3] in a line: Turnover of orally gavaged TCA into hippuric acid, recovery in urine. Format: in vivo, Pah ENU2/2 mice. The protocol: To determine whether hippuric acid detection in the urine is suitable as a measure for in vivo cell activity and a potential biomarker, the extent of turnover of TCA into hippuric acid was assessed by oral gavage of various concentrations of TCA in PKU mice and subsequent measurement of TCA and hippuric acid by LC/MS.
Various TCA concentrations were administered by oral gavage.
Urine and feces were transferred to appropriate tubes and store samples on ice until processed for MS analysis.
Next, the kinetics of conversion of TCA to hippuric acid was assessed in a time course post pure TCA oral gavage. […] TCA concentrations were administered by oral gavage. […] Urine was transferred to appropriate tubes and store samples on ice until processed for MS analysis.

For another series, the system named is hippurate. Put plainly: Kinetics of hippurate recovery in urine, gavage of live cells vs pure TCA. Format: in vivo, mice. From the text: FIG. 56 depicts a graph showing hippurate recovery in urine, and comparing kinetics of the generation of hippuric acid from phenylalanine through the gavage of live cells to the generation of hippuric acid derived from pure TCA gavage.

Where [4] appears, read: oral gavage 0.0125, 0.025, 0.05 or 0.1 mg/g TCA, 4 hours after gavage.

Molecules are shown by their SMILES.

`N[C@@H](Cc1ccccc1)C(=O)O` [Phenylalanine, phenylalanine]: the “period over which blood phenylalanine levels were stably elevated” value in series [1] was no less than 6 h.

For `O=C(O)/C=C/c1ccccc1` [TCA, Trans-cinnamic acid], the “recovery of TCA in the form of hippurate in urine” value in series [2] (setting [4]) is on record as “nearly full recovery”. Also, in series [2] (oral gavage 0.0125-0.1 mg/g TCA, 4 hours post gavage), the “TCA and hippurate in blood and feces” value was “Insignificant amounts”. In addition, the “recovery of TCA in the form of hippurate in the urine” value in series [3] (setting [4]) is “nearly full recovery”. For the same molecule, the “TCA and hippurate detected in blood and feces” value in series [3] (oral gavage of TCA, 4 h, data not shown) is recorded as “Insignificant amounts”. For the same molecule, in the series with hippurate, the “time of rapid decrease in hippurate recovery in urine post collection start” value was no more than 15 min.
